How the values were obtained:
[1] = test system: ICAM-1 on U937 cells; assay: ICAM-1 labeling of PMA-differentiated U937 macrophages, confocal laser scanning microscopy; assay type: cell-based, human; conditions: U937 monocytes exposed to 10^−8M PMA for 48 hours; monocytes alone stained weakly positive
Experimental: (§1) To obtain differentiated macrophages, U937 monocytes were exposed to 10^−8M PMA (originating from a 10^−3M stock in DMSO) (Sigma-Aldrich) for 48 hours. Exposure of monocytes to phorbol esters induces morphological, physiological and molecular characteristics of terminally differentiated macrophages (Rovera et al., 1979, Prieto et al., 1994). For CLSM staining purposes, monocytes were differentiated with PMA and A549 cells were grown in 6-well plates containing sterile coverslips. For CLSM staining of undifferentiated U937, cytodex-3 beads (5 mg/ml) were added to the culture medium, allowing adhesion of U937 to the beads and facilitation of the staining procedure.
The antibodies used for CLSM imaging in the present study were from mouse origin and targeted the human CD45 (Abcam), ICAM-1 (Abcam), MUC5AC (Invitrogen), ZO-1 (Invitrogen) and β-catenin (Chemicon). All primary antibodies were used in a dilution of 1:50. ICAM-1 was the only directly labeled antibody used for CLSM staining and was conjugated with phycoerythrin (PE). […]
Optical sections of the three-dimensional aggregates and monolayers were obtained using a Zeiss LSM 510 Duo laser scanning microscope equipped with detectors and filter sets for monitoring emissions of the selected fluorophores. Images were acquired using a Plan-Neofluar 40×/1.3 oil DIC objective and were analyzed with the Zeiss LSM software package. […]

[2] = test system: U937 cells; assay: Phagocytosis of 2 μm fluorescent beads by PMA-differentiated U937 macrophages; assay type: cell-based, human; conditions: U937 monocytes exposed to 10^−8M PMA for 48 hours; undifferentiated monocytes could not phagocytose
Experimental: as §1
The phagocytosis activity of monocytes and macrophages cultured alone or co-cultured with A549 cells in three-dimensional was assessed based on the uptake of bacterial-sized 2 μm fluorescent […] beads (Fluoresbrite plain YG, Polysciences). The phagocytosis assay was performed as previously described (Gao et al., 2010).

Compound: CCCCCCCCCCCCCC(=O)O[C@@H]1[C@@H](C)[C@@]2(O)[C@@H](C=C(CO)C[C@]3(O)C(=O)C(C)=C[C@@H]23)[C@@H]2C(C)(C)[C@]12OC(C)=O [PMA, phorbol 12-myristate 13-acetate]
- ICAM-1 labeling of differentiated macrophages [1]: strong ICAM-1 labeling
- phagocytosis of 2 μm fluorescent beads [2]: engulfment of one-to-multiple beads
